The nature of data set [1]: acute and seven-dose toxicity in dogs (capsules). Conditions: dog, in vivo.
Protocol: Therefore, these dogs were subsequently administered seven consecutive doses of 1000 mg/kg/day.
A further data set has as its target PDE5 (Homo sapiens, UniProt O76074). The experiment in a line: competitive (with cGMP) binding to PDE5.
The test system of a further data set is PDE1. The experiment in a line: PDE inhibition, similar protocols: PDE1. It counts as biochemical.
In another data set the test system is U937 cells. As to the kind of experiment: apoptosis induction of U937 cells (active caspase 3 immunofluorescence). The data set is classed as cell-based. Conditions: 1 μM, 24 hours, hydrochloride. Here is the method: The U937 monocyte cell line was derived from a histocytic lymphoma and can be driven to differentiate into an ‘activated macrophage like’ state by treatment with 5nM phorbal ester (TPA). Treated U937 cells become adherent, increase their cytoplasmic volume and express macrophage-specific cell surface markers. The presence and level of PDE2 and 5 mRNA in both differentiated and non-differentiated U937 cells was confirmed by performing RT-PCR experiments on total RNA.
U937 cells (from ATCC Rockville, Md.) were grown in RPMI media supplemented with 5% FCS, glutamine, antibiotic/antimycotic and sodium pyruvate. Total RNA was isolated from two U937 cultures, one treated with 5nM TPA for 48 hours and one grown in normal media as listed above, using the Rouche High Pure RNA Isolation Kit (cat# 1 828 665) as per manufacturers protocol. cDNA was then synthesized from the total RNA using GibcoBRL Superscriptll (Cat # 18064-022) reverse transcriptase as per manufacturers protocol. The resulting cDNA was used as a template for RT-PCR reactions using primer sets specific for PDE2 (forward: […], reverse: […]) or PDE5 (forward: […], reverse: […]). mRNA for PDE2 and 5 were both present in the untreated U937 cells. Upon treatment with TPA, the relative amounts of PDE2 mRNA increased 5 fold. Therefore, U937 cells treated with TPA and driven to differentiate into an activated macrophage like state have elevated levels of PDE2 mRNA (see FIG. 1).
The presence of PDE2 and PDE5 protein within U937 cells was confirmed by indirect immunofluorescence (IIF). U937 cells were cultured as above. Two U937 cultures, one grown in the presence of 5 nM TPA for 48 hours and one grown in normal media were processed. All cultures were collected by centrifugation (Shandon Cytospin, 2 minutes @ 600 rpm) onto poly-L lysine-coated slides and immediately fixed in fresh 3% paraformaldehyde buffered in PBS for 10 minutes. Adherent cultures were grown on coverslips and fixed as above. […]
The level of apoptosis in U937 cells was quantified by scoring 500 consecutive cells for the presence of active caspase 3. […]

pIC50: −log10 of the molar value. Entries after “also recorded” stand apart in the source; their conditions may differ. Where a name gives a salt, the structure may show the parent alone. Some results are limits rather than exact numbers.

From patent US6465494B1, “Methods for treatment of cystic fibrosis” (Cell Pathways, Inc., priority 2001, dated 2002) come the findings set out here.

`CC1=C(CC(=O)NCc2ccccc2)c2cc(F)ccc2/C1=C\c1ccncc1` [Example 38, (Z)-5-fluoro-2-methyl-(4-pyridylidene)-3-(N-benzyl)indenylacetamide hydrochloride] yielded an LD50 in data set [1] (both sexes, 1000 mg/kg, dogs, oral) of more than 1000 mg/kg. The signs of toxicity result in data set [1] (1000 mg/kg) is “no signs of toxicity”. Besides, the “signs of drug-related effects” value in data set [1] (1000 mg/kg/day) was “At no time in either dosing phase were any obvious signs of drug-related effects observed”. Also, at PDE5, the “competitive (with cGMP) binding to PDE 5” value is “does competitively (with cGMP) bind to PDE 5”. In the data set with PDE1, this compound had a pIC50 of 5.52. For the same compound, the “induction of apoptosis (active caspase 3)” value in the data set on U937 cells is “undergoing apoptosis as reflected by the presence of active caspase 3; also recorded: causes the induction of apoptosis in the differentiated and non-differentiated U937 cell line”.

Usually LD50 stands for the dose at which mortality reaches 50%. Broadly, the pIC50 is −log10 of the IC50, conventionally taken in molar units. A low value points to a large IC50.
